From US12570685B2, “2-methoxyestradiol derivatives and medical uses thereof” (INSTITUT PASTEUR KOREA, priority 2019, dated 2026)

Test system: HUVECs
Test: Radiation-induced EndMT / stress fiber phenomic screening in HUVECs using the HCS system
Format: cell-based, human
Conditions: 48 hours, compared to IR (control) treated group; for Stress Fiber Pre-: HUVECs pre-treated 1 hour before radiation; for Stress Fiber Pre- / Stress Fiber Post-: Phalloidin; for Stress Fiber Post-: HUVECs treated after 10 Gy irradiation (3 hours)
Method: We established a phenomic screening platform to measure radiation-induced stress fibers and optimized the conditions for high-throughput screening using HUVEC cells to develop compounds targeting RIPF. […] 2-ME derivatives were prepared and their anti-fibrotic activities were tested in vitro [Table 3] and in vivo mouse models [FIGS. 1 and 2]. […] In this test, HUVECs were pre-treated with 2-ME derivatives at 1 hour before radiation and irradiated with 10 Gy. After 48 hours, HUVECs stained with Phalloidin and Hoechst to assess morphological changes Collagen type 1 (BD Collagen I, 354236, Thermo Fisher Scientific) was diluted in 70% ethanol, and then the collagen solution (400 μg/ml) was dispensed into each 384-well plate (6007550, Perkin Elmer, MA, US). After a 1-hour incubation at room temperature, the wells were rinsed twice with Dulbecco's phosphate-buffered saline. HUVECs were seeded at a density of 7×10^2 cells per well onto collagen-coated, 384-well plates and allowed to attach in complete growth media. Cells were then exposed to 10 Gy radiation at room temperature. After irradiation, the cells were incubated for an additional 3 hours. The compounds were tested at a final concentration of 10 μM in 0.5% dimethyl sulfoxide (DMSO; v/v) using an automated liquid handling system (Hummingbird, Analytik Jena, Jena, DE). After the 48-hour treatment, cells were fixed with 4% paraformaldehyde (w/v). The expression of actin filament was determined by incubation with 488-Phalloidin (1:100, MOP-[…], Thermo Fisher Scientific) using direct immunofluorescence staining. The nuclei were stained using Hoechst 33342 (1:1000, MOP-H3570, Thermo Fisher Scientific) at room temperature. For assay validation, a control run was performed. The low control consisted of three 384-well plates that contained irradiated cells, and the high control consisted of three 384-well plates that contained non-irradiated cells. For detecting and visualizing filamentous actin (F-actin) and nuclei, images were collected using an automated high-content imaging system with a 20× magnifying objective (Operetta, PerkinElmer). The acquired images were analyzed using an in-house software tool and Harmony 3.5.1® high-content imaging (Harmony, PerkinElmer) for segmentation of cells.

Row | SMILES | Stress Fiber Pre- (10 Gy) | Stress Fiber Post- (10 μM) | Cell number (HUVECs, 10 Gy, 10 μM)
1 | COc1cc2c(cc1OC(C)=O)CCC1C2CC[C@@]2(C)C1CC[C@@H]2OC(C)=O (stereo partly shown) [compound 5] | O (there were stress fiber decreasing more than 20% compare to IR (control) treated group) | – | –
2 | COc1cc2c(cc1OC(C)=O)CCC1C2CC[C@@]2(C)C1CC[C@@H]2O (stereo partly shown) [compound 10] | O (there were stress fiber decreasing more than 20% compare to IR (control) treated group) | O (there were stress fiber decreasing more than 20% compare to IR (control) treated group) | –
3 | COc1cc2c(cc1O)CCC1C2CC[C@]2(C)C(=O)C=CC12 (stereo partly shown) [compound 2] | – | – | X (there were more than 10% changes in the cell number compare to IR (control) treated group)
4 | CCC(=O)Oc1cc2c(cc1OC)C1CC[C@@]3(C)C(CC[C@@H]3O)C1CC2 (stereo partly shown) [compound 11] | O (there were stress fiber decreasing more than 20% compare to IR (control) treated group) | O (there were stress fiber decreasing more than 20% compare to IR (control) treated group) | –
5 | CCC(=O)Oc1cc2c(cc1OC)C1CC[C@@]3(C)C(CC[C@@H]3OC(=O)CC)C1CC2 (stereo partly shown) [compound 6] | O (there were stress fiber decreasing more than 20% compare to IR (control) treated group) | – | –
